This test deals with NLRP3 inflammasome (Homo sapiens, UniProt Q96P20). The experiment in a line: IL-1β assay in IFN-γ-differentiated, LPS-primed, ATP-activated THP-1 cells (ELISA). Type of test: cell-based. As to conditions: 50 ng/mL LPS priming, 2.5 mM ATP activation, 2 hours. As to the method:
Monocytic THP-1 cells (ATCC: TIB-202) are maintained in accordance with the provider's instructions in RPMI media (Life Technologies, Cat #A10491-01); RPMI is supplemented with 10% heat inactivated fetal bovine serum (Hyclone Cat #SH30396.03). The cells are differentiated into macrophages by the addition of 25 ng/mL IFN-7 (PeproTech, Cat #300-02-100UG) for 24 hours at 37° C./5% CO2. Media is exchanged with fresh media with no FBS, and the cells are treated with 50 ng/mL LPS (priming step) for 24 hours at 37° C./5% CO2 (LPS-EK: Invivogen, Cat #tlrl-peklps). Media is exchanged with fresh media with no FBS. The cells are plated at 40,000 cells per well in 384-well flat-bottom cell culture plates (Costar 3764) containing compounds (added in 1:1000) in a 1:3.16 serial dilution series in DMSO and are incubated for 30 minutes at 37° C./5% CO2. The NLRP3 inflammasome is activated with the addition of 2.5 mM ATP (Sigma Cat #A3377) and the cells are incubated for 2 hours at 37° C./5% CO2. At the end of the incubation period, 40 μL supernatant is removed, and […] are monitored using an ELISA (Human […], R&D systems, Cat #DY201) in accordance with the manufacturer's instructions.
The IC50 values are calculated from a plot of percentage of inhibition versus the inhibitor concentration by a logistics curve fit according to: Y=[Bottom+(Top−Bottom)]/(1+10^[(Log IC50−X)·Hill Slope], where Y is the % inhibition at the inhibitor concentration, X, “Bottom” is the lowest inhibition value, i.e. 0%, “Top” is the maximum inhibition value, i.e. 100%, and the “Hill Slope” describes the slope of the sigmoidal curve between the “Bottom” and “Top” values. The curve fitting was conducted with internally developed software.
Background: An ELISA detects its analyte on a solid surface through an enzyme-linked reagent.

In patent publication US20250340563A1, “FUSED PYRIDAZINE DERIVATIVES AS NLRP3 INHIBITORS” (Takeda Pharmaceutical Company Limited, priority 2022, published 2025) one finds IC50 data, which are given here for 35 compounds.

Sequence of NLRP3 inflammasome (Q96P20 whole entry): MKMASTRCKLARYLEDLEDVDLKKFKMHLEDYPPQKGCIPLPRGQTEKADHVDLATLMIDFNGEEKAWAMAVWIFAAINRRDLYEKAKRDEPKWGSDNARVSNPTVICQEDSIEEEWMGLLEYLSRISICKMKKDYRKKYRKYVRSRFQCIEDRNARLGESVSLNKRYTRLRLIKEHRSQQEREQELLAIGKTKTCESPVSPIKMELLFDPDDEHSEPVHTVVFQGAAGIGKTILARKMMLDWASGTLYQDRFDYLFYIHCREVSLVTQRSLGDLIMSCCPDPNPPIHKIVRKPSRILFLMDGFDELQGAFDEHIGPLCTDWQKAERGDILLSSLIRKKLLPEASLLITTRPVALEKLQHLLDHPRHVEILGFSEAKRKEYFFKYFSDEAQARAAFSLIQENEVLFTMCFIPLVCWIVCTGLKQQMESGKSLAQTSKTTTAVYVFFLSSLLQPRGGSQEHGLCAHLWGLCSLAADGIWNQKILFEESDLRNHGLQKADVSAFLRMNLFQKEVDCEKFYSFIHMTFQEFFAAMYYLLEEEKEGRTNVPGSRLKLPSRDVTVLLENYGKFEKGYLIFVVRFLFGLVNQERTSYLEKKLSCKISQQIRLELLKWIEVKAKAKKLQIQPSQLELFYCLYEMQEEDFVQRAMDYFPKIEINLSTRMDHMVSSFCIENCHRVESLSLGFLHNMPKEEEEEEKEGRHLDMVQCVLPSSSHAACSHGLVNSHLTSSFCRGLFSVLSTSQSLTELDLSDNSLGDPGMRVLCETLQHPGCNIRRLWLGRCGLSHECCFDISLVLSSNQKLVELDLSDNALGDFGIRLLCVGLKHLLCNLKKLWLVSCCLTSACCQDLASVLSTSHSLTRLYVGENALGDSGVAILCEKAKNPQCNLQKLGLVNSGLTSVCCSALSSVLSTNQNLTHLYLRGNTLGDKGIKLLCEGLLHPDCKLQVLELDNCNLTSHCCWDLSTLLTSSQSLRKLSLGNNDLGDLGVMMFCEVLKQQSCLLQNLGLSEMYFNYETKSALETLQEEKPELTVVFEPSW

In general, IC50 refers to the point on the concentration scale where inhibition reaches its midpoint. Lower therefore signals higher potency. `CN1CCCC(Nc2nnc(-c3ccc(Cl)cc3)c3c2CCN(S(C)(=O)=O)C3)C1` (centres unmarked) [Example 106, 4-(4-chlorophenyl)-N-(1-methylpiperidin-3-yl)-6-(methylsulfonyl)-5,6,7,8-tetrahydropyrido[3,4-d]pyridazin-1-amine] gave an IC50 of 3310 nM. `OC1CC2(C1)CC(Nc1nnc(-c3ccc(Cl)cc3)c3ccccc13)C2` (centres unmarked) [Example 133, 6-((4-(4-chlorophenyl)phthalazin-1-yl)amino)spiro[3.3]heptan-2-ol] returned a half-inhibitory concentration (IC50) of 468 nM. Take `COc1ccc(-c2nnc(NCC3CCCCN3C)c3ccccc23)cc1` (centres unmarked) [Example 130, 4-(4-methoxyphenyl)-N-((1-methylpiperidin-2-yl)methyl)phthalazin-1-amine]: the half-maximal inhibitory concentration (IC50) was 3890 nM.

Turning to `CCN1CC(C)C(Nc2nnc(-c3ccc(Cl)cc3)c3ccccc23)C1` (centres unmarked) [Example 159, 4-(4-chlorophenyl)-N-(1-ethyl-4-methylpyrrolidin-3-yl)phthalazin-1-amine], 3630 nM corresponded to half-maximal inhibition (IC50). For the compound `CN1CCCC(Nc2nnc(-c3cccc(Cl)c3)c3ccccc23)C1` (centres unmarked) [Example 17, 4-(3-chlorophenyl)-N-(1-methylpiperidin-3-yl)phthalazin-1-amine], the IC50 turned out to be 4470 nM.

Compound `CN1CCC[C@@H](Nc2nnc(-c3ccccc3C(F)F)c3ccncc23)C1` [Example 91, (R)-1-(2-(difluoromethyl)phenyl)-N-(1-methylpiperidin-3-yl)pyrido[3,4-d]pyridazin-4-amine] had a concentration for half-maximal inhibition (IC50) of 307 nM.

In turn, `COc1ccc(-c2nnc(N[C@@H]3CCCN(C)C3)c3c2COCC3)cc1` [Example 223, (R)-4-(4-methoxyphenyl)-N-(1-methylpiperidin-3-yl)-7,8-dihydro-5H-pyrano[3,4-d]pyridazin-1-amine] gave a 50% inhibitory concentration (IC50) of 457 nM.

`CN(C)C1CC(Nc2nnc(-c3ccc(Cl)cc3)c3ccccc23)C1` (centres unmarked) [Example 149, Ni-(4-(4-chlorophenyl)phthalazin-1-yl)-N^3,N^3-dimethylcyclobutane-1,3-diamine] returned a 50% inhibitory concentration (IC50) of 3310 nM. The compound `O[C@]1(C(F)(F)F)CCC[C@@H](Nc2nnc(-c3ccc(Cl)cc3)c3ccccc23)C1` (racemic) [Example 114] gave an IC50 of 1230 nM. `CN1CC(Nc2nnc(-c3ccc(Cl)cc3)c3ccccc23)C(C)(C)C1` (centres unmarked) [Example 157, 4-(4-chlorophenyl)-N-(1,4,4-trimethylpyrrolidin-3-yl)phthalazin-1-amine] had a half-inhibitory concentration (IC50) of 4570 nM. Compound `COc1ccc(-c2nnc(NC3CCN(C)C3)c3ccccc23)cc1` (centres unmarked) [Example 126, 4-(4-methoxyphenyl)-N-(1-methylpyrrolidin-3-yl)phthalazin-1-amine] registered an IC50 of 2570 nM. As for `C[C@]1(O)C[C@@H](Nc2nnc(-c3ccc(Cl)cc3O)c3cnccc23)C1` [Example 94, cis-5-chloro-2-(1-((3-hydroxy-3-methylcyclobutyl)amino)pyrido[3,4-d]pyridazin-4-yl)phenol], the IC50 worked out at 102 nM. Compound `Cc1cc(Cl)ccc1-c1nnc(NC2CCCN(C)C2)c2cnccc12` (centres unmarked) [Example 49, 1-(4-chloro-2-methylphenyl)-N-(1-methylpiperidin-3-yl)pyrido[3,4-d]pyridazin-4-amine] came in with an IC50 of 288 nM.

Compound `COc1ccc(-c2nnc(N[C@@H]3C[C@@H](F)CN(C)C3)c3ccncc23)cc1` [Example 179, N-((3R,5R)-5-fluoro-1-methylpiperidin-3-yl)-4-(4-methoxyphenyl)pyrido[3,4-d]pyridazin-1-amine] gave an IC50 of 575 nM. Regarding `CC(=O)N1CCCC(Nc2nnc(-c3ccc(Cl)cc3)c3ccccc23)C1` (centres unmarked) [Example 110, 1-(3-((4-(4-chlorophenyl)phthalazin-1-yl)amino)piperidin-1-yl)ethan-1-one], the concentration for half-maximal inhibition (IC50) was found to be 4480 nM. For the compound `O[C@]1(C(F)(F)F)CCC[C@H](Nc2nnc(-c3ccc(Cl)cc3)c3ccccc23)C1` [Example 115, (1R,3S)-3-((4-(4-chlorophenyl)phthalazin-1-yl)amino)-1-(trifluoromethyl)cyclohexan-1-ol], it took 2190 nM to reach half-maximal inhibition (IC50). In the case of `CN1CCC[C@@H](Nc2nnc(-c3ccc(C(F)(F)F)cc3)c3ccncc23)C1` [Example 34, (R)—N-(1-methylpiperidin-3-yl)-1-(4-(trifluoromethyl)phenyl)pyrido[3,4-d]pyridazin-4-amine], the concentration for half-maximal inhibition (IC50) came out at 28 nM. With `O[C@]1(C(F)(F)F)C[C@H](Nc2nnc(-c3ccc(Cl)cc3)c3ccccc23)C1` [Example 120, cis-3-((4-(4-chlorophenyl)phthalazin-1-yl)amino)-1-(trifluoromethyl)cyclobutan-1-ol], the half-maximal inhibitory concentration (IC50) is 933 nM. `CN1CCC[C@@H](Nc2nnc(-c3ccccc3O)c3c2CCOC3)C1` [Example 227, (R)-2-(1-((1-methylpiperidin-3-yl)amino)-7,8-dihydro-5H-pyrano[3,4-d]pyridazin-4-yl)phenol] showed an IC50 of 21 nM. As to `CC1(c2ccc(-c3nnc(Nc4cccc(O)c4)c4ccccc34)cc2)CC1` [Example 3, 3-((4-(4-(1-methylcyclopropyl)phenyl)phthalazin-1-yl)amino)phenol], half-maximal inhibition (IC50) was put at 1120 nM.

Take `CC(=O)N1CCC(Nc2nnc(-c3ccc(Cl)cc3)c3ccccc23)C1` (centres unmarked) [Example 160, 1-(3-((4-(4-chlorophenyl)phthalazin-1-yl)amino)pyrrolidin-1-yl)ethan-1-one]: the midpoint of inhibition, the IC50, lay at 4790 nM. With `CN1CCCC(Nc2nnc(-c3ccc(Cl)cc3)c3c2CN(C2CC2)CC3)C1` (centres unmarked) [Example 103, 1-(4-chlorophenyl)-6-cyclopropyl-N-(1-methylpiperidin-3-yl)-5,6,7,8-tetrahydropyrido[3,4-d]pyridazin-4-amine], the IC50 stood at 3630 nM. In turn, `CN1CCCC(Nc2nnc(-c3ccc(Cl)cc3F)c3cnccc23)C1` (centres unmarked) [Example 69, 4-(4-chloro-2-fluorophenyl)-N-(1-methylpiperidin-3-yl)pyrido[3,4-d]pyridazin-1-amine] showed a concentration for half-maximal inhibition (IC50) of 838 nM. `CN1CCc2c(-c3ccc(Cl)cc3)nnc(NC3CCCN(C)C3)c2C1` (centres unmarked) [Example 101, 1-(4-chlorophenyl)-6-methyl-N-(1-methylpiperidin-3-yl)-5,6,7,8-tetrahydropyrido[3,4-d]pyridazin-4-amine] displayed a concentration for half-maximal inhibition (IC50) of 804 nM. As to `CN1CCCC(Nc2nnc(-c3ccc(C(F)(F)F)nc3)c3ccccc23)C1` (centres unmarked) [Example 22, N-(1-methylpiperidin-3-yl)-4-(6-(trifluoromethyl)pyridin-3-yl)phthalazin-1-amine], half-maximal inhibition (IC50) was put at 897 nM.

`Oc1ccccc1Nc1nnc(-c2ccc(Cl)cc2)c2ccccc12` [Example 156, 2-((4-(4-chlorophenyl)phthalazin-1-yl)amino)phenol] came in with an IC50 of 3550 nM. `COC1(C)CC(Nc2nnc(-c3ccc(Cl)cc3)c3ccccc23)C1(C)C` (centres unmarked) [Example 135, 4-(4-chlorophenyl)-N-(3-methoxy-2,2,3-trimethylcyclobutyl)phthalazin-1-amine] had a 50% inhibitory concentration (IC50) of 4570 nM. In turn, `CN1CCC[C@@H](Nc2nnc(-c3ccc(O)cc3)c3ccncc23)C1` [Example 23, (R)-4-(4-((1-methylpiperidin-3-yl)amino)pyrido[3,4-d]pyridazin-1-yl)phenol] displayed an IC50 of 10000 nM. Compound `CN1C[C@H](F)C[C@@H](Nc2nnc(-c3ccccc3O)c3c2CCOC3)C1` [Example 202, 2-(1-(((3R,5R)-5-fluoro-1-methylpiperidin-3-yl)amino)-7,8-dihydro-5H-pyrano[3,4-d]pyridazin-4-yl)phenol] had an IC50 of 210 nM. For `COc1ccc(-c2nnc(N[C@@H]3CCCN(C)C3)c3cnccc23)cc1F` [Example 25, (R)-1-(3-fluoro-4-methoxyphenyl)-N-(1-methylpiperidin-3-yl)pyrido[3,4-d]pyridazin-4-amine] the value was 199 nM; for `Oc1cccc(Nc2nnc(-c3ccc(C4CC4)cc3F)c3ccccc23)c1` [Example 8, 3-((4-(4-cyclopropyl-2-fluorophenyl)phthalazin-1-yl)amino)phenol], 891 nM; for `C[C@]1(O)C[C@H](Nc2nnc(-c3ccc(Cl)cc3)c3ccccc23)C1` [Example 119, trans-3-((4-(4-chlorophenyl)phthalazin-1-yl)amino)-1-methylcyclobutan-1-ol], 2750 nM. With `CN1CCC[C@@H](Nc2nnc(-c3ccc(OC(F)F)cc3)c3ccncc23)C1` [Example 27, (R)-1-(4-(difluoromethoxy)phenyl)-N-(1-methylpiperidin-3-yl)pyrido[3,4-d]pyridazin-4-amine], the IC50 stood at 38 nM. In turn, `CN1CCCC(Nc2nnc(-c3ccc(Cl)cc3)c3cnccc23)C1` (centres unmarked) [Example 62, 4-(4-chlorophenyl)-N-(1-methylpiperidin-3-yl)pyrido[3,4-d]pyridazin-1-amine] displayed an IC50 of 3550 nM. In turn, `COc1ccc(-c2nnc(NC3(CN4CCC4)CC3)c3ccccc23)cc1` [Example 132, N-(1-(azetidin-1-ylmethyl)cyclopropyl)-4-(4-methoxyphenyl)phthalazin-1-amine] registered an IC50 of 3890 nM.
